{
  "source": "paper PMC3511610",
  "about": "(Pediatric blood & cancer, 2012)",
  "key": {"[1]": {"test": "Phase I trial: toxicity, dose-limiting toxicities, MTD", "type": "in vivo, human (pediatric patients)", "settings": "for recommended phase 2 dose, vorinostat part of the combination: with bortezomib"}, "[2]": {"test": "Bortezomib plasma pharmacokinetics, day 8 cycle 1, three-compartment model", "type": "in vivo, human (pediatric patients)"}, "NF-κB": {"test_system": "NF-κB", "test": "NF-κB activity by ELISA in patient PBMCs", "type": "in vivo, human (pediatric patients)"}, "Grp78": {"test_system": "Grp78", "test": "Grp78 immunoblot in patient PBMCs", "type": "in vivo, human (pediatric patients)", "settings": "three evaluable of seven samples (four degraded); vs pre-treatment"}, "[3]": {"settings": "prior pediatric single agent trials; cited from earlier work"}, "[4]": {"settings": "cited from earlier work"}, "[5]": {"settings": "Pediatric Preclinical Testing Program (PPTP); cited from earlier work"}, "solid tumor": {"test_system": "solid tumor", "settings": "Pediatric Preclinical Testing Program (PPTP); cited from earlier work"}, "[6]": {"settings": "no reference given, cited from earlier work"}, "[7]": {"settings": "single agent, children with recurrent or refractory cancer; cited from earlier work"}, "[8]": {"test": "Vorinostat pharmacokinetics, day 8 cycle 1, noncompartmental"}, "[9]": {"settings": "Mean, n=6, single intravenous dose of 1.3 mg/m^2, day 8 cycle 1, plasma"}},
  "note": "Entries after “also recorded” stand apart in the source; their conditions may differ.",
  "data": [
    {"smiles": "CC(C)C[C@H](NC(=O)[C@H](Cc1ccccc1)NC(=O)c1cnccn1)B(O)O", "note": "[bortezomib, Bortezomib]", "values": [
      {"measurement": "MTD, bortezomib part of the combination", "setting": "[1]; i.v. days 1, 4, 8, 11, with vorinostat 230 mg/m^2/day, bortezomib not escalated", "result": 1.3, "unit": "mg/m^2/day"},
      {"measurement": "Cl (clearance)", "setting": "[2]; [9]", "result": 9.1, "unit": "L/hr/m^2"},
      {"measurement": "Vc (volume of distribution in the central compartment)", "setting": "[2]; [9]", "result": 13, "unit": "L/m^2"},
      {"measurement": "plasma concentrations prior to the day 8 dose", "setting": "[2]; cycle 1, dosed every three days, suggests accumulation", "result": "low plasma concentrations"},
      {"measurement": "AUC(0-inf)", "setting": "[2]; human, plasma, iv, 1.3 mg/m2", "result": 485, "unit": "ng·h/mL"},
      {"measurement": "AUC(0-t)", "setting": "[2]; human, plasma, iv, 1.3 mg/m2", "result": 82, "unit": "ng·h/mL"},
      {"measurement": "pretreatment NF-κB activity levels in PBMCs compared to levels 24 hours after bortezomib administration", "setting": "NF-κB; Figure 1, 0 vs 24 hours", "result": "the same or increased"},
      {"measurement": "NF-κB activity in PBMCs after bortezomib treatment", "setting": "NF-κB; PBMCs from solid tumor patients, with vorinostat", "result": "did not observe a decrease in NF-κB activity"},
      {"measurement": "NF-κB activation in PBMCs at 24 hours", "setting": "NF-κB; in approximately half of the patient samples", "result": "increase in NF-κB activation"},
      {"measurement": "Grp78 protein expression in PBMCs after bortezomib treatment", "setting": "Grp78", "result": "no induction of Grp78 detected; also recorded: not able to detect Grp78 induction"},
      {"measurement": "Dose-limiting toxicities (DLTs)", "setting": "[3]", "result": "thrombocytopenia, confusion, and febrile neutropenia associated with hypotension and an elevated creatinine"},
      {"measurement": "recommended phase 2 regimen in adults with solid tumors, bortezomib dose", "setting": "[4]; days 1, 4, 8, and 11, with vorinostat", "result": 1.3, "unit": "mg/m^2/dose"},
      {"measurement": "in vitro anti-tumor activity", "setting": "[5]", "result": "widespread in vitro anti-tumor activity"},
      {"measurement": "in vivo solid tumor activity", "setting": "solid tumor", "result": "limited to rhabdomyosarcoma, Wilms tumor, osteosarcoma, and medulloblastoma"},
      {"measurement": "adult MTD", "setting": "[6]", "result": 1.3, "unit": "mg/m^2/day"}
    ]},
    {"smiles": "O=C(CCCCCCC(=O)Nc1ccccc1)NO", "note": "[vorinostat, Vorinostat]", "values": [
      {"measurement": "MTD, vorinostat part of the combination", "setting": "[1]; PO days 1–5 and 8–12, with bortezomib 1.3 mg/m^2/day days 1, 4, 8, 11", "result": 230, "unit": "mg/m^2/day"},
      {"measurement": "recommended phase 2 dose, vorinostat part of the combination", "setting": "[1]; PO days 1–5 and 8–12 of a 21 day cycle", "result": 230, "unit": "mg/m^2/day"},
      {"measurement": "recommended phase 2 dose, vorinostat part of the combination", "setting": "[1]; orally days 1–5 and 8–12 of a 21 day cycle", "result": 230, "unit": "mg/m^2/dose"},
      {"measurement": "DLTs", "setting": "[7]", "result": "neutropenia, thrombocytopenia, and hypokalemia"},
      {"measurement": "recommended phase 2 regimen in adults with solid tumors, vorinostat dose", "setting": "[4]; daily for eight days every 21 days, with bortezomib", "result": 400, "unit": "mg"},
      {"measurement": "adult recommended dose", "setting": "[6]; daily", "result": 400, "unit": "mg"},
      {"measurement": "Tmax", "setting": "[8]; human, serum, po, 180 mg/m^2", "result": 6, "unit": "h"},
      {"measurement": "mean apparent clearance", "setting": "[8]; mean over patients, dose levels 180–300 mg/m^2 oral, day 8 cycle 1", "result": 198, "unit": "L/m^2"}
    ]}
  ]
}
